Results on one compound are retold here after patent US6590093B1, “Orthoester protecting groups” (Dharmacon, Inc., priority 1998, dated 2003).

Some results are limits rather than exact numbers.

The conditions of data set [1]: buffer, pH 2.
The nature of data set [2]: acid lability (half life) of the 2′-orthoester protecting group on uridine. Conditions: pH 2, 25° C.; after ester hydrolysis of the ACE orthoester.

`O=c1ccn(C2OC(CO)C(O)C2OC(OCCO)OCCO)c(=O)[nH]1` (centres unmarked) [2′-modified uridine] yielded a half life in data set [1] of under 45 s. Moreover, the “times more labile (than 2′-ACE-uridine)” value in data set [2] stood at 10 times.
